Here are results for 17 compounds from patent US9663528B2, “Substituted 1,2,3,4,6,8,12,12a-octahydro-1,4-methanodipyrido[1,2-a:1',2'-d]pyrazines and methods for treating viral infections” (priority 2012, dated 2017).

The nature of the first data set: Cytotoxicity (CC50) in MT-4 cells, mock-infected, CellTiter-Glo. Particulars: human. The method, then: For the antiviral assay utilizing MT4 cells, 0.4 μL of […] test concentration of 3-fold serially diluted compound in DMSO was added to 40 μL of cell growth medium (RPMI 1640, 10% FBS, 1% penicilline/Streptomycine, 1% L-Glutamine, 1% HEPES) in each well of 384-well assay plates (10 concentrations) in quidruplicate.
1 mL aliquots of 2×10^6 MT4 cells are pre-infected for 1 and 3 hours respectively at 37° C. with 25 μL (MT4) or of either cell growth medium (mock-infected) or a fresh 1:250 dilution of an HIV-IIIb concentrated ABI stock (0.004 m.o.i. for MT4 cells). Infected and uninfected cells are diluted in cell growth medium and 35 μL of 2000 (for MT4) cells is added to each well of the assay plates.
Assay plates were then incubated in a 37° C. incubator. After 5 days of incubation, 25 μL of 2× concentrated CellTiter-Glo™ Reagent (catalog #G7573, Promega Biosciences, Inc., Madison, Wis.) was added to each well of the assay plate. Cell lysis was carried out by incubating at room temperature for 2-3 minutes, and then chemiluminescence was read using the Envision reader (PerkinElmer).
(In general: ATP-based viability assays read luminescence as a measure of living cells.)
On to `O=C(NC1(c2ccc(F)cc2F)CCCCC1)c1cn2c(c(O)c1=O)C(=O)N1C(C2)O[C@H]2CC[C@@H]1C2` (stereo partly drawn) [Compound 34, (2S,5R)-N-(1-(2,4-difluorophenyl)cyclohexyl)-8-hydroxy-7,9-dioxo-2,3,4,5,7,9,13,13a-octahydro-2,5-methanopyrido[1′,2′:4,5]pyrazino[2,1-b][1,3]oxazepine-10-carboxamide], for which the CC50 at 5 days is 3580 nM.

Still in this data set, the particulars now being: human, CC50 nM in MT-4.
The compound `O=C(NCc1ccc(F)cc1F)c1cn2c(c(O)c1=O)C(=O)N1[C@@H]3CC[C@@H](C3)O[C@H]1C2` (racemic) [Compound 1, N-(2,4-difluorobenzyl)-8-hydroxy-7,9-dioxo-2,3,4,5,7,9,13,13a-octahydro-2,5-methanopyrido[1′,2′:4,5]pyrazino[2,1-b][1,3]oxazepine-10-carboxamide] displayed a CC50 at 5 days of 5820 nM.

Compound `C[C@@H](NC(=O)c1cn2c(c(O)c1=O)C(=O)N1[C@H]3CC[C@H](C3)O[C@@H]1C2)c1ccc(F)cc1F` [Compound 12, (2R,5S,13aR)-N—((R)-1-(2,4-difluorophenyl)ethyl)-8-hydroxy-7,9-dioxo-2,3,4,5,7,9,13,13a-octahydro-2,5-methanopyrido[1′,2′:4,5]pyrazino[2,1-b][1,3]oxazepine-10-carboxamide] had a CC50 at 5 days of 3340 nM.

In the case of `C[C@H](NC(=O)c1cn2c(c(O)c1=O)C(=O)N1[C@H]3CC[C@H](C3)O[C@@H]1C2)c1ccc(F)cc1F` [Compound 14, (2R,5S,13aR)-N—((S)-1-(2,4-difluorophenyl)ethyl)-8-hydroxy-7,9-dioxo-2,3,4,5,7,9,13,13a-octahydro-2,5-methanopyrido[1′,2′:4,5]pyrazino[2,1-b][1,3]oxazepine-10-carboxamide], the CC50 at 5 days turned out to be 4940 nM.

Compound `C[C@H](NC(=O)c1cn2c(c(O)c1=O)C(=O)N1[C@@H]3CC[C@@H](C3)O[C@H]1C2)c1ccc(F)cc1` [Compound 21, (2S,5R,13aS)-N—((S)-1-(4-fluorophenyl)ethyl)-8-hydroxy-7,9-dioxo-2,3,4,5,7,9,13,13a-octahydro-2,5-methanopyrido[1′,2′:4,5]pyrazino[2,1-b][1,3]oxazepine-10-carboxamide] registered a CC50 at 5 days of 13000 nM.

Compound `C[C@H](NC(=O)c1cn2c(c(O)c1=O)C(=O)N1[C@H]3CC[C@H](C3)O[C@@H]1C2)c1ccc(F)cc1` [Compound 22, (2R,5S,13aR)-N—((S)-1-(4-fluorophenyl)ethyl)-8-hydroxy-7,9-dioxo-2,3,4,5,7,9,13,13a-octahydro-2,5-methanopyrido[1′,2′:4,5]pyrazino[2,1-b][1,3]oxazepine-10-carboxamide] displayed a CC50 at 5 days of 4430 nM.

In turn, `O=C(NCc1cc(F)cc(F)c1)c1cn2c(c(O)c1=O)C(=O)N1[C@@H]3CC[C@@H](C3)O[C@H]1C2` [Compound 24, (2S,5R,13aS)-N-(3,5-difluorobenzyl)-8-hydroxy-7,9-dioxo-2,3,4,5,7,9,13,13a-octahydro-2,5-methanopyrido[1′,2′:4,5]pyrazino[2,1-b][1,3]oxazepine-10-carboxamide] showed a CC50 at 5 days of 12100 nM.

`O=C(NCc1ccc(F)c(C(F)(F)F)c1)c1cn2c(c(O)c1=O)C(=O)N1[C@@H]3CC[C@@H](C3)O[C@H]1C2` [Compound 25, (2S,5R,13aS)-N-(4-fluoro-3-(trifluoromethyl)benzyl)-8-hydroxy-7,9-dioxo-2,3,4,5,7,9,13,13a-octahydro-2,5-methanopyrido[1′,2′:4,5]pyrazino[2,1-b][1,3]oxazepine-10-carboxamide] had a CC50 at 5 days of 5230 nM.

The compound `O=C(NCc1ccc(Cl)c(F)c1)c1cn2c(c(O)c1=O)C(=O)N1[C@@H]3CC[C@@H](C3)O[C@H]1C2` [Compound 26, (2S,5R,13aS)-N-(4-chloro-3-fluorobenzyl)-8-hydroxy-7,9-dioxo-2,3,4,5,7,9,13,13a-octahydro-2,5-methanopyrido[1′,2′:4,5]pyrazino[2,1-b][1,3]oxazepine-10-carboxamide] yielded a CC50 at 5 days of 8840 nM.

`O=C(NC1(c2ccc(F)cc2F)CC1)c1cn2c(c(O)c1=O)C(=O)N1C(C2)O[C@H]2CC[C@@H]1C2` (stereo partly drawn) [Compound 27, (2S,5R)-N-(1-(2,4-difluorophenyl)cyclopropyl)-8-hydroxy-7,9-dioxo-2,3,4,5,7,9,13,13a-octahydro-2,5-methanopyrido[1′,2′:4,5]pyrazino[2,1-b][1,3]oxazepine-10-carboxamide] showed a CC50 at 5 days of 8750 nM.

Compound `O=C(NC1(c2ccc(F)cc2F)CC1)c1cn2c(c(O)c1=O)C(=O)N1C(C2)O[C@@H]2CC[C@H]1C2` (stereo partly drawn) [Compound 31, (2R,5S)-N-(1-(2,4-difluorophenyl)cyclopropyl)-8-hydroxy-7,9-dioxo-2,3,4,5,7,9,13,13a-octahydro-2,5-methanopyrido[1′,2′:4,5]pyrazino[2,1-b][1,3]oxazepine-10-carboxamide] registered a CC50 at 5 days of 4520 nM.

In turn, `O=C(NC1(c2ccc(F)cc2F)CCOCC1)c1cn2c(c(O)c1=O)C(=O)N1C(C2)O[C@H]2CC[C@@H]1C2` (stereo partly drawn) [Compound 35, (2S,5R)-N-(4-(2,4-difluorophenyl)tetrahydro-2H-pyran-4-yl)-8-hydroxy-7,9-dioxo-2,3,4,5,7,9,13,13a-octahydro-2,5-methanopyrido[1′,2′:4,5]pyrazino[2,1-b][1,3]oxazepine-10-carboxamide] had a CC50 at 5 days of 15500 nM.

`O=C(NCc1ncccc1C(F)(F)F)c1cn2c(c(O)c1=O)C(=O)N1[C@@H]3CC[C@@H](C3)O[C@H]1C2` [Compound 49, (2S,5R,13aS)-8-hydroxy-7,9-dioxo-N-((3-(trifluoromethyl)pyridin-2-yl)methyl)-2,3,4,5,7,9,13,13a-octahydro-2,5-methanopyrido[1′,2′:4,5]pyrazino[2,1-b][1,3]oxazepine-10-carboxamide] yielded a CC50 at 5 days of 52200 nM.

The compound `O=C(NCc1ccc(F)cc1OC1CC1)c1cn2c(c(O)c1=O)C(=O)N1[C@@H]3CC[C@@H](C3)O[C@H]1C2` [Compound 52, (2S,5R,13aS)-N-(2-cyclopropoxy-4-fluorobenzyl)-8-hydroxy-7,9-dioxo-2,3,4,5,7,9,13,13a-octahydro-2,5-methanopyrido[1′,2′:4,5]pyrazino[2,1-b][1,3]oxazepine-10-carboxamide] came in with a CC50 at 5 days of 12900 nM.

Compound `O=C(NCc1ccc(F)cc1OC1CC1)c1cn2c(c(O)c1=O)C(=O)N1[C@H]3CC[C@H](C3)O[C@@H]1C2` [Compound 53, (2R,5S,13aR)-N-(2-cyclopropoxy-4-fluorobenzyl)-8-hydroxy-7,9-dioxo-2,3,4,5,7,9,13,13a-octahydro-2,5-methanopyrido[1′,2′:4,5]pyrazino[2,1-b][1,3]oxazepine-10-carboxamide] had a CC50 at 5 days of 3350 nM.

In turn, `O=C(NCc1ccc(F)cc1C(F)(F)F)c1cn2c(c(O)c1=O)C(=O)N1[C@H]3CC[C@H](C3)O[C@@H]1C2` [Compound 62, (2R,5S,13aR)-N-(4-fluoro-2-(trifluoromethyl)benzyl)-8-hydroxy-7,9-dioxo-2,3,4,5,7,9,13,13a-octahydro-2,5-methanopyrido[1′,2′:4,5]pyrazino[2,1-b][1,3]oxazepine-10-carboxamide] showed a CC50 at 5 days of 3490 nM.

With `O=C(NCc1cc(Cl)c(F)cc1F)c1cn2c(c(O)c1=O)C(=O)N1[C@H]3CC[C@H](C3)O[C@@H]1C2` [Compound 65, (2R,5S,13aR)-N-(5-chloro-2,4-difluorobenzyl)-8-hydroxy-7,9-dioxo-2,3,4,5,7,9,13,13a-octahydro-2,5-methanopyrido[1′,2′:4,5]pyrazino[2,1-b][1,3]oxazepine-10-carboxamide], the CC50 at 5 days was found to be 2510 nM.
